According to patent publication US6177441A, “Treating red blood cell solutions with anti-viral agents” (Cerus Corporation, priority 1998, dated 2001):
Where a name gives a salt, the structure may show the parent alone.

Tests used:
[1] = tested on: R17
[2] = tested on: R17; experiment: Kinetics of R17 inactivation by QM with NAC quench (Example 3); details: for Log Titer: NAC/no QM, no NAC/no QM 8.80
[3] = tested on: red blood cells; details: mouse, in vivo
[4] = tested on: cell-associated HIV; experiment: microbe, parasite or virus in culture; type: cell-based, HIVIIIB; details: Human immunodeficiency virus 1, Erythrocyte
[5] = tested on: cell-free HIV; experiment: microbe, parasite or virus in culture; type: cell-based; details: Human immunodeficiency virus 1, Erythrocyte, 100 min
[6] = tested on: red blood cells; details: mouse, in vivo; remark: listed apart in the source
[7] = tested on: red cells; details: photo treatment; cited from earlier work
[8] = tested on: R17; type: cell-based, bacteriophage R17
[9] = tested on: red blood cells
[10] = tested on: R17; experiment: R17 inactivation by Compound 1 in packed red blood cells (Example 2); type: cell-based, bacteriophage R17
Method: Another experiment was performed to test the inactivation ability of a novel compound, Compound 1. A 1:1000 dilution of R17 (stock titer was 11.9 logs) was prepared in 25 ml packed red blood cells. To each of 5 tubes was added 5 ml of this R17-packed red blood cell solution. Compound 1 was then dissolved in saline to a final concentration of 3 mg/ml. The compound in solution was added to the […] as follows: the first tube, the control tube, received saline only; the second tube received 10 μg/ml of Compound 1 in saline; the third tube received 30 μg/ml of Compound 1 in saline; the forth tube received 100 μg/ml Compound 1 in saline and the final tube received 300 μg/ml of Compound 1 in saline. The tubes were mixed and then incubated at 4° C. overnight. […] Concentrations above 30 μg/ml inactivated approximately 4 logs of R17 with a starting titer of 10 logs of R17.

Structure (SMILES): CCN(CC)CCCC(C)Nc1c2ccc(Cl)cc2nc2ccc(OC)cc12 (centres unmarked) [quinacrine]
- light-dependent kill of R17 [1]: no light-dependent kill

Structure (SMILES): CC(=O)N[C@@H](CS)C(=O)O [NAC, N-acetyl-cysteine]
- R17 kill by NAC alone [2]: does not kill R17
- protection against QM inactivation ([2]; NAC added before QM): substantial, but not complete protection against QM inactivation
- Log Titer ([2]; dilute at end): 8.35
- Log Titer ([2]; dilute): 8.73
- quenching of QM activity ([2]; combination of NAC and dilution): almost complete quenching of QM activity

Structure (SMILES): CCN(CCCl)CCCNc1c2ccc(Cl)cc2nc2ccc(OC)cc12.Cl.Cl [ICR-170, N-(2-chloroethyl)-N-ethyl-N'-(6-chloro-2-methoxy-9-acridinyl)-1,3-propanediamine dihydrochloride]
- % RECOVERY, HIGH [3]: 90.4
- % RECOVERY, LOW [3]: 93.1
- log reduction at 10 µg/mL [4]: 0.5
- log reduction at 20 µg/mL [4]: 1.2
- log reduction at 40 µg/mL [4]: 2
- log reduction at 80 µg/mL [4]: 2
- log reduction at 10 µg/mL [5]: 0.6
- log reduction at 20 µg/mL [5]: 1.3
- log reduction at 40 µg/mL [5]: 2.3
- log reduction at 80 µg/mL [5]: 4
- LOSS PER DAY [6]: 2.71%
- RECOVERY [6]: 86.0 ± 6.6

Structure (SMILES): CN(C)c1ccc2nc3ccc(=[N+](C)C)cc-3sc2c1 [methylene blue]
- ATP of photo treated red cells [7]: loss of ATP
- IgG binding of photo treated red cells [7]: binding of autologous immunoglobulin (IgG) to the red cell surface
- ion permeability of photo treated red cells [7]: enhanced ion permeability

Structure (SMILES): O=C(O)CCCc1ccc(N(CCCl)CCCl)cc1 [Chlorambucil, chlorambucil]
- R17 inactivation [8]: ≤ 0.4 logs
- R17 inactivation (words) [8]: little or no inactivation
- IgG binding of red cells [9]: did not alter

Structure (SMILES): COc1c2occc2c(CN(CCCl)CCCl)c2ccc(=O)oc12 [Compound 1, 5-[N,N-bis(2-chloroethyl)amino]methyl-8-methoxypsoralen hydrochloride]
- R17 inactivation activity ([10]; 10-300 μg/ml in packed red blood cells): showed R17 inactivation activity
- R17 inactivated ([10]; concentrations above 30 μg/ml, 4° C. overnight, starting titer 10 logs): approximately 4 logs
